Laboratory results taken from publication PMC10952689 (Angewandte Chemie (International Ed. in English), 2023).

Biological target: T1, human TRPV1 (Homo sapiens, UniProt Q8NER1)
T1 construct: expressed in transfected cells
Type: cell-based
Experimental: Oocytes were held at −60 mV and data normalised to currents elicited by 10 μM capsaicin. (D) Reversibility of DkTx and Y35G evoked rat TRPV1 response at the indicated peptide concentrations using TEVC oocytes. Data points represent the fraction of currents remaining during the washout as a ratio to the maximal current evoked by each sample. (E) Washout shown as fractional current determined by whole‐cell patch clamp recordings from HEK293 cells expressing TRPV1 (voltage‐clamped at −80 mV). […] The time constant for decay was not fitted and calculated in panels D and E, as it could not be accurately determined for data sets with minimal washout over the experimental time course. All data are mean ± standard error of the mean (n=5–7).

T1 sequence (Q8NER1 whole entry): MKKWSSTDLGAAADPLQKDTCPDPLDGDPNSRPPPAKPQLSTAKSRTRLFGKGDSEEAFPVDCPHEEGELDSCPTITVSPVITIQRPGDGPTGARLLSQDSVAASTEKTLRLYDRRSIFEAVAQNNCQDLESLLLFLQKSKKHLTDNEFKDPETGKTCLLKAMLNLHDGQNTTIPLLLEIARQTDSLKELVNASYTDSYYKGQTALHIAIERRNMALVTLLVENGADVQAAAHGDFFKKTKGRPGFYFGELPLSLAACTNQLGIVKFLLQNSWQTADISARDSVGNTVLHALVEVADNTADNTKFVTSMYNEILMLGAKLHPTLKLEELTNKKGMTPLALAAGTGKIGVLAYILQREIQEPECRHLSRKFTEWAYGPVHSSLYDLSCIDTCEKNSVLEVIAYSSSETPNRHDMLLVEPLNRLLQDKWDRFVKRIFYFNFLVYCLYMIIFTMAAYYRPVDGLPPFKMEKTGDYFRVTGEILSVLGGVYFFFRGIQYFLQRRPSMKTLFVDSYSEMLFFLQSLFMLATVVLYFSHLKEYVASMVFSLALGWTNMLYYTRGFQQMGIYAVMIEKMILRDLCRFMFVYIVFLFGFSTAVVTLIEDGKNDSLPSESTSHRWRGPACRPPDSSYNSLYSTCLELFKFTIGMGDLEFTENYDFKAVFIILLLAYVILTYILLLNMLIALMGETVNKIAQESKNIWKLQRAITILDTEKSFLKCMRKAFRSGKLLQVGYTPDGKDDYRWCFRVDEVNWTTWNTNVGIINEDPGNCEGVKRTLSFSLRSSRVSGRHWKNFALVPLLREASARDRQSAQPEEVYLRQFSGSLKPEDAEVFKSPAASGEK

Structure (SMILES) | reversibility of TRPV1 current upon washing | inhibition of iDkTx-evoked currents (10 μM ruthenium red against 2 μM iDkTx, +80 mV, HEK293, Figure 1E–F)
COc1cc(CNC(=O)CCCC/C=C/C(C)C)ccc1O [capsaicin] | rapidly reversible upon washing | 
N.N.N.N.N.N.N.N.N.N.N.N.N.N.[Cl-].[Cl-].[Cl-].[Cl-].[Cl-].[Cl-].[O-2].[O-2].[Ru+3].[Ru+3].[Ru+4] [ruthenium red] |  | fully inhibited
